Among the data in patent US4383113A, “Agricultural sulfonamides” (E. I. Du Pont de Nemours and Company, priority 1981, dated 1983) are response rating values, retold here.

Each structure is given as a SMILES string.

Holding throughout (test): Test A pre-emergence
The subject of one assay is morningglory. Type of assay: in vivo, Ipomoea spp. Set-up: key: 0 = no effect, 10 = maximum effect; letter = response symbol. Put shortly: (§1)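 Seeds and tubers were treated preemergence in a growth medium with compound in a nonphytotoxic solvent, against untreated controls; emerged plants such as two-leaf barnyardgrass and five-leaf cotton were sprayed postemergence, against solvent-sprayed controls. After sixteen days in a greenhouse, response was rated visually from 0 to 10.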

A further assay has as its system cocklebur. In kind it is in vivo, Xanthium spp. Set-up: key: 0 = no effect, 10 = maximum effect; letter = response symbol. Put shortly:
as §1

For another assay, the system named is cassia. Type of assay: in vivo, Cassia tora. The arrangement: key: 0 = no effect, 10 = maximum effect; letter = response symbol. The following applies: 0.4 kg/ha. Put shortly:
as §1

For another assay, the system named is nutsedge. In kind it is in vivo, Cyperus rotundus. The source says:
(§2) The activity of these compounds was discovered in a number of greenhouse and field tests. The ratings are based on a numerical scale extending from 0=no effect, to 10=maximum effect. The accompanying descriptive symbols have the following meanings:
(§3) Seeds of crabgrass (Digitaria spp.), barnyardgrass (Echinochloa crusgalli), wild oats (Avena fatua), cassia (Cassia tora), morningglory (Ipomoea spp.), cocklebur (Xanthium spp.), sorghum, corn, soybean, rice, wheat and nutsedge tubers (Cyperus rotundus) were planted in a growth medium and treated preemergence with a nonphytotoxic solvent solution of the compounds of Table XII. Other batches of seeds and tubers for all of the foregoing weed and crop plants were planted at the same time as controls. The control plantings were untreated; i.e., neither any compound nor any solvent was applied. At the same time, cotton having five leaves (including cotyledonary ones), bush beans with the third trifoliate leaf expanding, crabgrass with two leaves, barnyardgrass with two leaves, wild oats with two leaves, cassia with three leaves (including cotyledonary ones), morningglory with four leaves (including the cotyledonary ones), cocklebur with four leaves (including the cotyledonary ones), sorghum with four leaves, corn with four leaves, soybean with two cotyledonary leaves, rice with three leaves, wheat with one leaf, and nutsedge with three-five leaves were sprayed with a nonphytotoxic solvent solution of the compounds of Table XII. Other groups of all the same weed and crop plants were sprayed with the same nonphytotoxic solvent so as to provide control plants. Preemergence and postemergence treated plants and controls were maintained in a greenhouse for sixteen days, then all treated plants were compared with their respective controls and rated visually for response to treatment.

In another assay the test system is wild oats. Type of assay: in vivo, Avena fatua. The arrangement: key: 0 = no effect, 10 = maximum effect; letter = response symbol. The following applies: 0.4 kg/ha.
Excerpt: as §2, §3

A further assay relates to rice. Type of assay: in vivo. The arrangement: key: 0 = no effect, 10 = maximum effect; letter = response symbol. The following applies: 0.4 kg/ha. Put shortly: as §1
A further assay deals with soybean. In kind it is in vivo. The arrangement: key: 0 = no effect, 10 = maximum effect; letter = response symbol. In outline: as §1
The subject of the next assay is wheat. In kind it is in vivo. Set-up: key: 0 = no effect, 10 = maximum effect; letter = response symbol. As to conditions: 0.4 kg/ha. In outline: as §1
The next assay has as its system crabgrass. Type of assay: in vivo, Digitaria spp. The arrangement: key: 0 = no effect, 10 = maximum effect; letter = response symbol.
Excerpt: as §2, §3

Another assay has as its system barnyardgrass. Type of assay: in vivo, Echinochloa crusgalli. The arrangement: key: 0 = no effect, 10 = maximum effect; letter = response symbol. As to conditions: 0.4 kg/ha. Put shortly: as §1
For a further assay, the system named is corn. Type of assay: in vivo. Set-up: key: 0 = no effect, 10 = maximum effect; letter = response symbol. Put shortly: as §1
The subject of another assay is sorghum. Type of assay: in vivo. The arrangement: key: 0 = no effect, 10 = maximum effect; letter = response symbol. In outline:
as §1

Turning to `COc1nc(C)nc(NC(=O)NS(=O)(=O)c2ccccc2C(=O)OCc2ccc(Cl)cc2)n1` [drawing 527], the response rating in the assay on morningglory (0.4 kg/ha) came out at 9G; with cocklebur (0.4 kg/ha), 8G; with cassia it was 8G; in the assay on nutsedge (0.4 kg/ha) it was 9G; in the assay on wild oats, 4G; in the assay on rice, 9H. The response rating was found to be 7H in the assay with soybean (0.4 kg/ha) and 0 in the assay with wheat.

In the case of `COc1nc(C)nc(NC(=O)NS(=O)(=O)c2ccccc2C(=O)OC2CCCCCCC2)n1` [drawing 523], the response rating in the assay with cocklebur (0.4 kg/ha) was determined as 9G; in the assay with cassia, 8G; with nutsedge (0.4 kg/ha) it was 7G; in the assay on crabgrass (0.4 kg/ha) it was 5G; with barnyardgrass, 9H; in the assay on wild oats, 7G. Further, the response rating with rice was determined as 9H; in the assay with soybean (0.4 kg/ha), 9H; in the assay on wheat it was 5G.

In the case of `COC(=O)c1ccccc1S(=O)(=O)NC(=O)Nc1nc(OC)nc(OC)n1` [drawing 483], the response rating with morningglory (0.4 kg/ha) is 9G; with cocklebur (0.4 kg/ha), 9G; in the assay with cassia, 9G; in the assay on nutsedge (0.4 kg/ha) it was 9G; in the assay with crabgrass (0.4 kg/ha), 9H; with barnyardgrass, 9H. In addition, the response rating is listed as 9G in the assay on wild oats; 9G with corn (0.4 kg/ha); 9G in the assay on sorghum (0.4 kg/ha); 9H in the assay on soybean (0.4 kg/ha); 9G in the assay on wheat.

`Cc1cc(C)nc(NC(=O)NS(=O)(=O)c2ccccc2C(=O)O)n1` [drawing 511]: the response rating in the assay with morningglory (10 kg/ha) stood at 7G; with cocklebur (10 kg/ha) it was 9G; with nutsedge (10 kg/ha), 9G; in the assay on crabgrass (10 kg/ha), 1C; in the assay with corn (10 kg/ha) it was 8; with sorghum (10 kg/ha) it was 5G. This compound also came in with a response rating in the assay on soybean (10 kg/ha) of 4G.

With `COC(=O)c1cc(F)ccc1S(=O)(=O)NC(=O)Nc1nc(C)nc(OC)n1` [drawing 517], the response rating with morningglory (0.4 kg/ha) is recorded as 9G; with cassia, 9G; in the assay on crabgrass (0.4 kg/ha) it was 5G; in the assay with wild oats, 2G; in the assay on rice it was 9H; in the assay on sorghum (0.4 kg/ha), 9G. For the same compound, the response rating with soybean (0.4 kg/ha) is 9H; with wheat, 0.

In the case of `COc1nc(C)nc(NC(=O)NS(=O)(=O)c2ccccc2C(=O)OC(C)CCl)n1` (stereo not shown) [drawing 526], the response rating with morningglory (0.4 kg/ha) is 9G; with cocklebur (0.4 kg/ha), 9G; with cassia it was 8G; in the assay on corn (0.4 kg/ha), 9G; with rice it was 9H; with sorghum (0.4 kg/ha) it was 9H. Moreover, the values for the response rating in the assay with soybean (0.4 kg/ha) and in the assay on wheat were 9H and 4G, respectively.

As to `CCOCCOC(=O)c1ccccc1S(=O)(=O)NC(=O)Nc1nc(Cl)cc(Cl)n1` [drawing 520], the response rating came to 3G in the assay with morningglory (0.4 kg/ha); 0 in the assay on cassia; 2G in the assay with crabgrass (0.4 kg/ha); 0 in the assay with wild oats; 1C with corn (0.4 kg/ha); 8H with rice. Besides, the response rating in the assay with sorghum (0.4 kg/ha) came out at 8G; in the assay with soybean (0.4 kg/ha), 0; in the assay with wheat it was 0.

Turning to `COc1nc(C)nc(NC(=O)NS(=O)(=O)c2ccccc2C(=O)OCCCl)n1` [drawing 493], the response rating in the assay with morningglory (0.4 kg/ha) stood at 9C; in the assay on cocklebur (0.4 kg/ha) it was 9G; in the assay with nutsedge (0.4 kg/ha), 9G; with wild oats, 8H; in the assay with rice, 9H; with soybean (0.4 kg/ha), 9H.

In the case of `CCCCCCCCCCCCNC(=O)c1ccccc1S(=O)(=O)NC(=O)Nc1nc(C)nc(OC)n1` [drawing 534], the response rating is 9G in the assay on morningglory (0.4 kg/ha); 8G with cocklebur (0.4 kg/ha); 8G in the assay with cassia; 9H in the assay with barnyardgrass; 6G in the assay on wild oats; 8G in the assay on corn (0.4 kg/ha). Besides, the response rating in the assay with rice worked out at 9H; in the assay on wheat, 6G.

As for `CCCCCCCCCCOC(=O)c1ccccc1S(=O)(=O)NC(=O)Nc1nc(OC)cc(OC)n1` [drawing 494], the response rating in the assay with morningglory (0.4 kg/ha) worked out at 5G; in the assay with cocklebur (0.4 kg/ha) it was 9G; in the assay on cassia, 5G; in the assay on nutsedge (0.4 kg/ha) it was 5G; with crabgrass (0.4 kg/ha), 0; in the assay on wild oats, 6G. The response rating in the assay on rice came out at 8G; with sorghum (0.4 kg/ha), 8G; with soybean (0.4 kg/ha), 3G; with wheat, 2G.

For `CCCCCCCCCCOC(=O)c1ccccc1S(=O)(=O)NC(=O)Nc1nc(C)cc(OC)n1` [drawing 495], the response rating in the assay on morningglory (0.4 kg/ha) was 8G; in the assay on cocklebur (0.4 kg/ha) it was 9G; with cassia, 7G; with nutsedge (0.4 kg/ha), 7G; in the assay on crabgrass (0.4 kg/ha), 0; with rice, 9H. Besides, the response rating with wheat stood at 8G.

As to `COc1cc(C)nc(NC(=O)NS(=O)(=O)c2ccccc2C(=O)CCC(C)C)n1` [drawing 516], the response rating in the assay with morningglory (0.4 kg/ha) is listed as 9G; in the assay on cocklebur (0.4 kg/ha), 9G; in the assay with cassia, 9G; in the assay with nutsedge (0.4 kg/ha) it was 9G; in the assay on corn (0.4 kg/ha), 9G; with sorghum (0.4 kg/ha), 9H. For the same compound, the response rating in the assay on soybean (0.4 kg/ha) came to 8H; with wheat, 9G.

With `CCCCCCOC(=O)c1ccccc1S(=O)(=O)NC(=O)Nc1nc(C)cc(COC)n1` [drawing 538], the response rating with morningglory (0.4 kg/ha) is 0; with cocklebur (0.4 kg/ha), 0; in the assay with cassia, 0; in the assay with crabgrass (0.4 kg/ha), 0; in the assay on barnyardgrass, 2G; with wild oats, 0. Besides, the response rating is given as 8H with rice, 3G in the assay with sorghum (0.4 kg/ha), 0 with soybean (0.4 kg/ha) and 0 in the assay on wheat.

Turning to `COc1nc(C)nc(NC(=O)NS(=O)(=O)c2ccccc2C(=O)Oc2ccccc2C)n1`, the response rating in the assay with morningglory (0.4 kg/ha) is given as 9G; in the assay on cocklebur (0.4 kg/ha), 9G; with cassia, 9G; with nutsedge (0.4 kg/ha), 8G; in the assay with barnyardgrass it was 9H; in the assay on soybean (0.4 kg/ha), 9H.

With `COC(=O)c1cc(Cl)c(Cl)cc1S(=O)(=O)NC(=O)Nc1nc(C)cc(OC)n1` [drawing 519], the response rating in the assay with morningglory (0.4 kg/ha) is on record as 8G; with cocklebur (0.4 kg/ha), 8G; in the assay with cassia, 0; in the assay on crabgrass (0.4 kg/ha), 2G; in the assay with barnyardgrass, 9G; in the assay on wild oats it was 4G. The response rating in the assay on rice worked out at 9H; in the assay on wheat it was 5G.

As for `C=CCCC(C)OC(=O)c1ccccc1S(=O)(=O)NC(=O)Nc1nc(C)nc(OC)n1` (stereo not shown) [drawing 522], the response rating is reported as 9G in the assay on morningglory (0.4 kg/ha); 9G with cocklebur (0.4 kg/ha); 9G in the assay with cassia; 9G in the assay with nutsedge (0.4 kg/ha); 9H in the assay on sorghum (0.4 kg/ha); 9H with soybean (0.4 kg/ha). Also, the response rating with wheat stood at 7G.

With `COc1nc(NC(=O)NS(=O)(=O)c2ccccc2C(=O)OCCCl)nc(OC)n1` [drawing 489], the response rating in the assay on morningglory (0.4 kg/ha) is on record as 9C; in the assay with cocklebur (0.4 kg/ha), 9G; in the assay with crabgrass (0.4 kg/ha), 4G; in the assay with wild oats, 8G; in the assay with corn (0.4 kg/ha), 9G; in the assay on rice, 9H. Besides, the response rating in the assay with sorghum (0.4 kg/ha) is given as 9G; in the assay on soybean (0.4 kg/ha), 9H; with wheat, 5G.
